Measured values as given in ChEMBL document CHEMBL5247653, “Discovery of Clinical Candidate ACT-777991, a Potent CXCR3 Antagonist for Antigen-Driven and Inflammatory Pathologies” (J Med Chem, 2023).
Active and inactive are the calls of the source. The rule behind the calls is not given here.

Experiments:
[1] = Metabolic stability in rat liver microsomes assessed as intrinsic clearance at 1 uM and measured upto 15 mins in presence of NADPH regenerating system by LC-MS/MS analysis; type: ADME, Microsome; conditions: read-out: CLH
[2] = Metabolic stability in rat hepatocytes assessed as intrinsic clearance per 10^6 cells at 1 uM by LC-MS/MS analysis; type: ADME, cell-based, Hepatocyte
[3] = Metabolic stability in dog hepatocytes assessed as intrinsic clearance per 10^6 cells at 1 uM by LC-MS/MS analysis; type: ADME, cell-based, Canis lupus familiaris, Hepatocyte
[4] = target: T1, C-X-C chemokine receptor type 3 (Homo sapiens, UniProt P49682); experiment: Antagonist activity at human CXCR3 expressed in CHO-K1 cells assessed as reduction in CXCL9 induced calcium flux by FLIPR method; type: cell-based
T1 sequence (P49682 whole entry): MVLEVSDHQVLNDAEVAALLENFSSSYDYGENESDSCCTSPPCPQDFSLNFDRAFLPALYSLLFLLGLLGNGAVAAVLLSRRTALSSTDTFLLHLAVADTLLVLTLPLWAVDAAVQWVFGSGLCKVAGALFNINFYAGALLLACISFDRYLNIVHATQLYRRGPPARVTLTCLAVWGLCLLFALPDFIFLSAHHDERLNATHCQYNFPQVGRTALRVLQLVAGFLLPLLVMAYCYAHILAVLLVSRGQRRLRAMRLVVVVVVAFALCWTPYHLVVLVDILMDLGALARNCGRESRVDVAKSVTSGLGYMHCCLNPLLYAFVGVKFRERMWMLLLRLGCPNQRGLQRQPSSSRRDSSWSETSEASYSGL

[5] = target: T1, C-X-C chemokine receptor type 3; experiment: Antagonist activity at human CXCR3 expressed in CHO-K1 cells assessed as reduction in CXCL11 induced calcium flux by FLIPR method; type: cell-based
[6] = target: T2, C-X-C chemokine receptor type 3 (Mus musculus, UniProt O88410); experiment: Antagonist activity at mouse CXCR3 expressed in CHO-K1 cells assessed as reduction in CXCL10 induced calcium flux by FLIPR method; type: cell-based
T2 sequence (O88410 whole entry): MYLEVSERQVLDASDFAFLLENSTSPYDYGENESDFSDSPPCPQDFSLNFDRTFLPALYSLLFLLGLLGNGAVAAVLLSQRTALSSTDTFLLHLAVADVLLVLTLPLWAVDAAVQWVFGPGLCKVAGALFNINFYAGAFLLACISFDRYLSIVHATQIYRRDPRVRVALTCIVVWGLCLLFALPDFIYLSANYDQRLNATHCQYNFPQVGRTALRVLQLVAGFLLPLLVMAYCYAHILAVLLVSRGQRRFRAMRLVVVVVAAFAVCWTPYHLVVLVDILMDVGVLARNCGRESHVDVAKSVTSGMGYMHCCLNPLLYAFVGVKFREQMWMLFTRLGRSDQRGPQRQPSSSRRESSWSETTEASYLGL

[7] = target: C-X-C chemokine receptor type 3 (Rattus norvegicus, UniProt Q9JII9); experiment: Antagonist activity at rat CXCR3 expressed in CHO-K1 cells assessed as reduction in CXCL10 induced calcium flux by FLIPR method; type: cell-based
[8] = target: C-X-C chemokine receptor type 3 (Canis lupus familiaris, UniProt Q5KSK8); experiment: Antagonist activity at dog CXCR3 expressed in CHO-K1 cells assessed as reduction in CXCL11 induced calcium flux by FLIPR method; type: cell-based
[9] = target: T2, C-X-C chemokine receptor type 3; experiment: Antagonist activity at CXCR3 in DBA/1 mouse whole blood assessed as receptor internalization incubated for 30 mins in presence of CXCL10 by flow cytometric analysis; type: tissue-based
[10] = target: T3, C-X-C chemokine receptor type 3 (Homo sapiens) (UniProt P49682); experiment: Binding affinity to CXCR3 (unknown origin) at 10 uM by radioligand binding assay; conditions: filed as antagonist
T3 sequence (whole entry): T1 sequence (P49682 whole entry)

[11] = target: fMet-Leu-Phe receptor (Homo sapiens) (UniProt P21462); experiment: Binding affinity to FPR1 (unknown origin) at 10 uM by radioligand binding assay
[12] = target: Chemerin-like receptor 1 (Homo sapiens) (UniProt Q99788); experiment: Binding affinity to ChemR23 (unknown origin) at 10 uM by radioligand binding assay
[13] = target: T4, C-X-C chemokine receptor type 3 (Mus musculus) (UniProt O88410); experiment: In vivo antagonist activity at CXCR3 in LPS-induced DBA/1 mouse model assessed as reduction in mouse CXCL10-mediated chemotaxis in CD8+ T cells at 0.006 microg/g, po bid preincubated for 3 days followed by LPS stimulation for 30 mins and measured after 3 days by flow cytometry; type: functional, organism-based; parameters: scale not given: the % may be the effect or the level left; conditions: T-cell, dose 0.006 µg/g, time 6.0 day
T4 sequence (whole entry): T2 sequence (O88410 whole entry)

[14] = Cmin in LPS-induced DBA/1 mouse plasma at 0.06 microg/g, po bid preincubated for 3 days followed by LPS stimulation for 30 mins and measured after 72 hrs by flow cytometry; type: ADME, organism-based; conditions: dose 0.06 µg/g, time 6 day, read-out: Cmin
[15] = target: Cytochrome P450 2D6 (Homo sapiens, UniProt P10635); experiment: Time dependent inhibition of CYP2D6 (unknown origin); type: ADME
[16] = target: ATP-dependent translocase ABCB1 (Homo sapiens, UniProt P08183); experiment: Inhibition of human P-gp in dog MDCKII-MDR1 cells; type: ADME, cell-based
[17] = Metabolic stability in human hepatocyte assessed as M4 metabolite formation at 1 uM and measured upto 15 mins in presence of NADPH regenerating system by LC-MS/MS analysis; type: ADME, cell-based; conditions: hepatocytes, 0.25 h
[18] = Metabolic stability in rat hepatocyte assessed as M1 metabolite formation at 1 uM and measured upto 15 mins in presence of NADPH regenerating system by LC-MS/MS analysis; type: ADME, cell-based; conditions: hepatocytes, 0.25 h
[19] = Metabolic stability in rat hepatocyte assessed as M2 metabolite formation at 1 uM and measured upto 15 mins in presence of NADPH regenerating system by LC-MS/MS analysis; type: ADME, cell-based; conditions: hepatocytes, 0.25 h
[20] = Metabolic stability in rat hepatocyte assessed as M4 metabolite formation at 1 uM and measured upto 15 mins in presence of NADPH regenerating system by LC-MS/MS analysis; type: ADME, cell-based; conditions: hepatocytes, 0.25 h
[21] = Metabolic stability in dog hepatocyte assessed as M1 metabolite formation at 1 uM and measured upto 15 mins in presence of NADPH regenerating system by LC-MS/MS analysis; type: ADME, cell-based, Canis lupus familiaris; conditions: hepatocytes, 0.25 h
[22] = Clearance in Wistar rat at 3 mg/kg,iv or 3 mg/kg, po; type: ADME, organism-based; conditions: in vivo
[23] = Half life in Wistar rat at 3 mg/kg,iv or 3mg/kg, po; type: ADME, organism-based; conditions: in vivo
[24] = Oral bioavailability in Beagle dog at 2.5 mg/kg; type: ADME, organism-based, Canis lupus familiaris; conditions: in vivo
[25] = Half life in Beagle dog at 2.5 mg/kg,iv or 2.5 mg/kg, po; type: ADME, organism-based, Canis lupus familiaris; conditions: in vivo
[26] = Cardiotoxicity in human iPSC-derived cardiomyocytes assessed as slowing of spontaneous beating rate at 4.1 ug/ml; type: toxicity, cell-based; conditions: cardiac muscle cell, dose 4.1 µg/ml
[27] = In vivo inhibition of hERG in iv dosed dog assessed as increase in QTc interval; type: toxicity, organism-based, Canis lupus familiaris
[28] = In vivo inhibition of hERG in dog assessed as increase in QTc interval at 24 ug/ml, iv; type: toxicity, organism-based, Canis lupus familiaris; conditions: at 24 µg/mL
[29] = Genotoxicity in Salmonella typhimurium TA98 at 5000 ug in presence of S9 fraction; type: toxicity, subcellular, Salmonella enterica subsp. enterica serovar Typhimurium; conditions: dose 5000 µg

Sequence of fMet-Leu-Phe receptor (Homo sapiens) (P21462 whole entry): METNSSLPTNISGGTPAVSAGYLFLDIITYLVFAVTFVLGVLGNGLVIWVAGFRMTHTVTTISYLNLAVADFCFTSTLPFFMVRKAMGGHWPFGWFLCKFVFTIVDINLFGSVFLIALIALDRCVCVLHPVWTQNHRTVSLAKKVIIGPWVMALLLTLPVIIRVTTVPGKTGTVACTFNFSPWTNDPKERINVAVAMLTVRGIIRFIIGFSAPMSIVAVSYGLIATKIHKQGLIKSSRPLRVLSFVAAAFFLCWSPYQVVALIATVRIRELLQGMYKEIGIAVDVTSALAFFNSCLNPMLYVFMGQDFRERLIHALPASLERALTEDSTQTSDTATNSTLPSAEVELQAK
Sequence of Chemerin-like receptor 1 (Homo sapiens) (Q99788 whole entry): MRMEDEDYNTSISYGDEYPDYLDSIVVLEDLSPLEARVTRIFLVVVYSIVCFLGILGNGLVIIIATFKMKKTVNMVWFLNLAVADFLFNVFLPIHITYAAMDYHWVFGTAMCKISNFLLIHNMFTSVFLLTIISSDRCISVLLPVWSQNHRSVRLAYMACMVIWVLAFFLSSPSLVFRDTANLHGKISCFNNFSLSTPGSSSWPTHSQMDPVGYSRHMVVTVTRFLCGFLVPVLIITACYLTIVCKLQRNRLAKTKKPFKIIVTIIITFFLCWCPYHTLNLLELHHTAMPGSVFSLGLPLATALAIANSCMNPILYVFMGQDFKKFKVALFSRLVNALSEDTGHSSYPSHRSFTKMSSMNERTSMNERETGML
Sequence of C-X-C chemokine receptor type 3 (Rattus norvegicus, UniProt Q9JII9) (Q9JII9 whole entry): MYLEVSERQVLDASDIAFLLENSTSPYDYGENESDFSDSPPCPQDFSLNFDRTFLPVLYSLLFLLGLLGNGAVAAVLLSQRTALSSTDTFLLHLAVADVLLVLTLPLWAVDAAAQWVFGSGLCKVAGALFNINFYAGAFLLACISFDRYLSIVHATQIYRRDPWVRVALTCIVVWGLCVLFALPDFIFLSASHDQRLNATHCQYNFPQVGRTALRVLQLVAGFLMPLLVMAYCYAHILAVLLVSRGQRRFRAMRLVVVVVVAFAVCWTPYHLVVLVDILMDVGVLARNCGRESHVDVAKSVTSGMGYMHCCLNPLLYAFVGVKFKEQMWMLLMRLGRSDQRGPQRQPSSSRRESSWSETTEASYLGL
Sequence of ATP-dependent translocase ABCB1 (P08183 whole entry): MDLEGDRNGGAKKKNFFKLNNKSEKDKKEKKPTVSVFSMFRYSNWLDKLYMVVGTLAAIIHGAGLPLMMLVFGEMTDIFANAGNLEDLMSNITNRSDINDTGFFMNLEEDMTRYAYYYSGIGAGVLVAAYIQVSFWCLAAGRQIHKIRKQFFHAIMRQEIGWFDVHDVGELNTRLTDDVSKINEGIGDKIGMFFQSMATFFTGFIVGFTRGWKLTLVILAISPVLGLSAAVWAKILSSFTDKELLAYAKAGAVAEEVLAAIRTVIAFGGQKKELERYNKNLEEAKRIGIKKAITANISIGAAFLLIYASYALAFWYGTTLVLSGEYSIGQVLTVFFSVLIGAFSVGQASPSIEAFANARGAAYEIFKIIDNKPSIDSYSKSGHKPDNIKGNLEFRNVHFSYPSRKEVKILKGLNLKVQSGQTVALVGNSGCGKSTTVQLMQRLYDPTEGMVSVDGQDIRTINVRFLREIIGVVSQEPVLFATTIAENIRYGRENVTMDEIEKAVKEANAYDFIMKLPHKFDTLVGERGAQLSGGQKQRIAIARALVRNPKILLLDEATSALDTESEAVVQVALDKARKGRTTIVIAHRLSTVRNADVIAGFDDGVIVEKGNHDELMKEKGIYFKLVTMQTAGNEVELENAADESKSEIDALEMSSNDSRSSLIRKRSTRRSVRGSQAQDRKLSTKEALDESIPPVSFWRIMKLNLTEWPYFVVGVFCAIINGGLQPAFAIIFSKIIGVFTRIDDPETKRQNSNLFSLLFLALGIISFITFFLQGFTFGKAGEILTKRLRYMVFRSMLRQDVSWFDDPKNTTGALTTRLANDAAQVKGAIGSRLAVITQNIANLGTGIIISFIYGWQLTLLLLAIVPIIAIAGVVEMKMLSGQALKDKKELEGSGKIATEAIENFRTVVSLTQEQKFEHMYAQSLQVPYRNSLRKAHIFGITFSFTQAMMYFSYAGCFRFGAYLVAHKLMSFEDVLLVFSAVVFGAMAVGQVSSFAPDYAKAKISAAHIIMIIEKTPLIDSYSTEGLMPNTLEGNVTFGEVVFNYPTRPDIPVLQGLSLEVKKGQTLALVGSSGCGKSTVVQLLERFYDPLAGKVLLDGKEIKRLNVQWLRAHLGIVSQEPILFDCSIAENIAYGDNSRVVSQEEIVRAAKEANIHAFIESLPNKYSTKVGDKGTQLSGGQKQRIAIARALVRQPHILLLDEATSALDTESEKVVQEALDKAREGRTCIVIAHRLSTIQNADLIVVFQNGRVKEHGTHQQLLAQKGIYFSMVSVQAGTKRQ
Sequence of Cytochrome P450 2D6 (P10635 whole entry): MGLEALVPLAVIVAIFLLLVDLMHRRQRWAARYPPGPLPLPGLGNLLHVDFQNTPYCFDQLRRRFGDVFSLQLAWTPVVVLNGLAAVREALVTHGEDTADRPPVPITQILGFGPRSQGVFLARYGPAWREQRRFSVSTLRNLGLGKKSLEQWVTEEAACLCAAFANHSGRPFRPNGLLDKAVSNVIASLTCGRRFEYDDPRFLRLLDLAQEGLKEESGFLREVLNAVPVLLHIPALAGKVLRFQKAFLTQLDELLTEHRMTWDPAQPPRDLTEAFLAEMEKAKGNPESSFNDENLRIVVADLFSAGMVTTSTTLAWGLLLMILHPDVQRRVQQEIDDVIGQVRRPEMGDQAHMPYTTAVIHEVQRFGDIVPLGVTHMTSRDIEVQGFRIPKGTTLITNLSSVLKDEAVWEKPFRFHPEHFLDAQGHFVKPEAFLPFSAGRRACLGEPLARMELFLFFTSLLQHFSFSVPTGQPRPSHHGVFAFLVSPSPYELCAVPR
Sequence of C-X-C chemokine receptor type 3 (Canis lupus familiaris, UniProt Q5KSK8) (Q5KSK8 whole entry): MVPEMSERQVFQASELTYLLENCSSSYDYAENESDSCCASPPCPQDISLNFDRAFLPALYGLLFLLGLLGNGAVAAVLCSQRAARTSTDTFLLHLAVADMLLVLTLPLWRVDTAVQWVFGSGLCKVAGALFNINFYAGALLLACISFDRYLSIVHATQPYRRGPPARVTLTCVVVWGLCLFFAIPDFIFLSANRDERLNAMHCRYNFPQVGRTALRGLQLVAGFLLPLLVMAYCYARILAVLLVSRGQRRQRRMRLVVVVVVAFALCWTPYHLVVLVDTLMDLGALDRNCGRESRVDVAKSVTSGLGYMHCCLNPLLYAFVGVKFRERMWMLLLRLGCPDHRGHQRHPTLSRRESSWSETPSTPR

What does the source list for Cc1ncn(CC(=O)N2CCN(c3sc(C(F)(F)F)nc3-c3cnc(C(F)(F)F)nc3)C[C@H]2CCO)n1?
microsomal CLint at 1 µM [1]: < 10 µL/min/mg; CLH [2]: < 2 µL/min/mg; CLH [3]: < 2 µL/min/mg; IC50 [4]: 3.3 nM; IC50 [5]: 5.3 nM; IC50 [6]: 1.5 nM; IC50 [7]: 2.2 nM; IC50 [8]: 4 nM; IC50 [9]: 161 nM; Activity [10]: Active; Activity [11]: inactive; Activity [12]: inactive; Activity [13]: 35%; concentration at 72 h [14]: 267 ng/mL; IC50 [15]: > 50000 nM; inhibition (INH) [16]: Not Active; Stability [17]: Unstable; Stability [18]: Unstable; Stability [19]: Unstable; Stability [20]: Unstable; Stability [21]: Unstable; clearance [22]: 9.5 mL/min/kg; half-life [23]: 5.5 h; bioavailability [24]: 89%; half-life [25]: 5.3 h; Activity [26]: Toxic; inhibition (INH) [27]: Toxic; inhibition (INH) [28]: Toxic; Activity [29]: Non-Toxic
